Measurements from patent publication US10105357B2, “Indication of antibiotic drugs for preparation of cancer inhibition pharmaceutical composition” (LAUNX BIOMEDICAL CO., LTD., priority 2014, dated 2018).
Like-named read-outs stand apart in the source and are kept apart here.

How the values were obtained:
[1] = tested on: HI650 (Lung Adenocarcinoma); experiment: Cell viability analysis, lung cancer HI650; assay type: cell-based, human
[2] = tested on: A549 (Lung Adenocarcinoma); experiment: Cell viability analysis, lung cancer A549; assay type: cell-based, human
[3] = tested on: AGS (Gastric Adenocarcinoma); experiment: Cell viability analysis, gastric cancer AGS; assay type: cell-based, human
[4] = tested on: MKN-45 (Gastric Adenocarcinoma); experiment: Cell viability analysis, gastric cancer MKN-45; assay type: cell-based, human
[5] = tested on: HepG2 (Hepatocellular Carcinoma); experiment: Cell viability analysis, hepatic cancer HepG2; assay type: cell-based, human
[6] = tested on: Hep3B (hepatocellular carcinoma); experiment: Cell viability analysis, hepatic cancer Hep3B; assay type: cell-based, human
[7] = tested on: LoVo (Colorectal Adenocarcinoma); experiment: Cell viability analysis, colon cancer LoVo; assay type: cell-based, human
[8] = tested on: A375 (Amelanotic Melanoma); experiment: Cell viability analysis, skin cancer A375; assay type: cell-based, human
[9] = tested on: BCC (basal cell carcinoma); experiment: Cell viability analysis, skin cancer BCC; assay type: cell-based, human
[10] = tested on: HeLa (Cervix Adenocarcinoma); experiment: Cell viability analysis, cervical cancer HeLa; assay type: cell-based, human
[11] = tested on: C-33A (Cervical carcinoma); experiment: Cell viability analysis, cervical cancer C-33A; assay type: cell-based, human
[12] = tested on: PC3 (p53−) (Prostate Adenocarcinoma); experiment: Cell viability analysis, prostate cancer PC3; assay type: cell-based, human
[13] = tested on: TSGH-8301 (Urinary Bladder Carcinoma); experiment: Cell viability analysis, bladder cancer TSGH-8301; assay type: cell-based, human
T24 = experiment: Cell viability analysis, bladder cancer T24; assay type: cell-based, human
[14] = tested on: MCF7 (Mammary Gland, Adenocarcinoma); experiment: Cell viability analysis, breast cancer MCF7; assay type: cell-based, human
[15] = tested on: MDA-MB-231 (Mammary Gland, Adenocarcinoma); experiment: Cell viability analysis, breast cancer MDA-MB-231; assay type: cell-based, human
BxPC-3 = experiment: Cell viability analysis, pancreatic cancer BxPC-3; assay type: cell-based, human
AsPC-1 = experiment: Cell viability analysis, pancreatic cancer AsPC-1; assay type: cell-based, human
NIH: OVCAR-3 = experiment: Cell viability analysis, ovarian cancer NIH: OVCAR-3; assay type: cell-based, human
TOV-21G = experiment: Cell viability analysis, ovarian cancer TOV-21G; assay type: cell-based, human
[16] = tested on: SAS (Tongue squamous cell carcinoma); experiment: Cell viability analysis, tongue cancer SAS; assay type: cell-based, human
U-2OS = experiment: Cell viability analysis, osteosarcoma U-2OS; assay type: cell-based, human
[17] = tested on: 786-O (Renal adenocarcinoma); experiment: Cell viability analysis, renal cancer 786-O; assay type: cell-based, human
[18] = tested on: HCT116 (p53+) (Colorectal Carcinoma)

With `CCCSc1ccc2[nH]c(NC(=O)OC)nc2c1` [Albendazole (Albenza)] the “The results of antibiotic drug inhibiting cancer cell lines (cell viability analysis), H1650” value ([1]; H1650, repeated experiment) was 41.75, the “The results of antibiotic drug inhibiting cancer cell lines (cell viability analysis), A549” value ([2]; A549, repeated experiment) was 24.2 and the “The results of antibiotic drug inhibiting cancer cell lines (cell viability analysis), AGS” value ([3]; AGS, repeated experiment) was 29.46. For the same compound, the “The results of antibiotic drug inhibiting cancer cell lines (cell viability analysis), MKN-45” value ([4]; MKN-45, repeated experiment) was 62.34, the “The results of antibiotic drug inhibiting cancer cell lines (cell viability analysis), HepG2” value ([5]; HepG2, repeated experiment) was 62.7 and the “The results of antibiotic drug inhibiting cancer cell lines (cell viability analysis), Hep3B” value ([6]; Hep3B, repeated experiment) was 61.38. For the same compound, the “The results of antibiotic drug inhibiting cancer cell lines (cell viability analysis), LoVo” value ([7]; LoVo, repeated experiment) was 50.79, the “The results of antibiotic drug inhibiting cancer cell lines (cell viability analysis), A375” value ([8]; A375, repeated experiment) was 36.21 and the “The results of antibiotic drug inhibiting cancer cell lines (cell viability analysis), BCC” value ([9]; BCC, repeated experiment) was 31.25. The “The results of antibiotic drug inhibiting cancer cell lines (cell viability analysis), HeLa” value ([10]; HeLa, repeated experiment) was 29.9, the “The results of antibiotic drug inhibiting cancer cell lines (cell viability analysis), C-33A” value ([11]; C-33A, repeated experiment) was 42.62 and the “The results of antibiotic drug inhibiting cancer cell lines (cell viability analysis), PC-3” value ([12]; PC-3, repeated experiment) was 37.99. For the same compound, the “The results of antibiotic drug inhibiting cancer cell lines (cell viability analysis), TSGH-8301” value ([13]; TSGH-8301, repeated experiment) was 46.61, the “The results of antibiotic drug inhibiting cancer cell lines (cell viability analysis), T24” value (T24; T24, repeated experiment) was 37.98 and the “The results of antibiotic drug inhibiting cancer cell lines (cell viability analysis), MCF-7” value ([14]; MCF-7, repeated experiment) was 69.83. For the same compound, the “The results of antibiotic drug inhibiting cancer cell lines (cell viability analysis), MDA-MB231” value ([15]; MDA-MB231, repeated experiment) was 44.52, the “The results of antibiotic drug inhibiting cancer cell lines (cell viability analysis), BxPC-3” value (BxPC-3; BxPC-3, repeated experiment) was 36.62 and the “The results of antibiotic drug inhibiting cancer cell lines (cell viability analysis), AsPC-1” value (AsPC-1; AsPC-1, repeated experiment) was 35.28. The “The results of antibiotic drug inhibiting cancer cell lines (cell viability analysis), NIH-OVCAR-3” value (NIH: OVCAR-3; NIH-OVCAR-3, repeated experiment) was 52.49, the “The results of antibiotic drug inhibiting cancer cell lines (cell viability analysis), TOV-21G” value (TOV-21G; TOV-21G, repeated experiment) was 29.79 and the “The results of antibiotic drug inhibiting cancer cell lines (cell viability analysis), SAS” value ([16]; SAS, repeated experiment) was 36.08. For the same compound, the “The results of antibiotic drug inhibiting cancer cell lines (cell viability analysis), U2OS” value (U-2OS; U2OS, repeated experiment) was 50.07, the “The results of antibiotic drug inhibiting cancer cell lines (cell viability analysis), 786-O” value ([17]; 786-O, repeated experiment) was 21.55 and the viability [18] was 20.9%.

In the case of `CS(=O)(=O)c1ccc([C@@H](O)[C@@H](CO)NC(=O)C(Cl)Cl)cc1` [Thiamphenicol (Thiophenicol)], the “The results of antibiotic drug inhibiting cancer cell lines (cell viability analysis), H1650” value [1] is reported as 94.92, the “The results of antibiotic drug inhibiting cancer cell lines (cell viability analysis), A549” value [2] is reported as 97.41 and the “The results of antibiotic drug inhibiting cancer cell lines (cell viability analysis), AGS” value [3] is reported as 140.3. For the same compound, the “The results of antibiotic drug inhibiting cancer cell lines (cell viability analysis), MKN-45” value [4] was 177, the “The results of antibiotic drug inhibiting cancer cell lines (cell viability analysis), HepG2” value [5] was 143.9 and the “The results of antibiotic drug inhibiting cancer cell lines (cell viability analysis), Hep3B” value [6] was 103.3. For the same compound, the “The results of antibiotic drug inhibiting cancer cell lines (cell viability analysis), LoVo” value [7] was 96.08, the “The results of antibiotic drug inhibiting cancer cell lines (cell viability analysis), A375” value [8] was 112 and the “The results of antibiotic drug inhibiting cancer cell lines (cell viability analysis), BCC” value [9] was 111.8. For the same compound, the “The results of antibiotic drug inhibiting cancer cell lines (cell viability analysis), HeLa” value [10] was 90.82, the “The results of antibiotic drug inhibiting cancer cell lines (cell viability analysis), C-33A” value [11] was 140.2 and the “The results of antibiotic drug inhibiting cancer cell lines (cell viability analysis), PC-3” value [12] was 150.2. The “The results of antibiotic drug inhibiting cancer cell lines (cell viability analysis), TSGH-8301” value [13] was 136.8, the “The results of antibiotic drug inhibiting cancer cell lines (cell viability analysis), T24” value (T24) was 164 and the “The results of antibiotic drug inhibiting cancer cell lines (cell viability analysis), MCF-7” value [14] was 89.24. For the same compound, the “The results of antibiotic drug inhibiting cancer cell lines (cell viability analysis), MDA-MB231” value [15] was 95.4, the “The results of antibiotic drug inhibiting cancer cell lines (cell viability analysis), BxPC-3” value (BxPC-3) was 86.08 and the “The results of antibiotic drug inhibiting cancer cell lines (cell viability analysis), AsPC-1” value (AsPC-1) was 102.5. The “The results of antibiotic drug inhibiting cancer cell lines (cell viability analysis), NIH-OVCAR-3” value (NIH: OVCAR-3) was 115.7, the “The results of antibiotic drug inhibiting cancer cell lines (cell viability analysis), TOV-21G” value (TOV-21G) was 105.7 and the “The results of antibiotic drug inhibiting cancer cell lines (cell viability analysis), SAS” value [16] was 54.04. The “The results of antibiotic drug inhibiting cancer cell lines (cell viability analysis), U2OS” value (U-2OS) was 51.12, the “The results of antibiotic drug inhibiting cancer cell lines (cell viability analysis), 786-O” value [17] was 93.48 and the viability [18] was 150%.

For `Cc1cc(C#N)cc(C)c1Oc1nc(Nc2ccc(C#N)cc2)nc(N)c1Br` [Etravirine (TMC125)], the “The results of antibiotic drug inhibiting cancer cell lines (cell viability analysis), H1650” value [1] was 51.13, the “The results of antibiotic drug inhibiting cancer cell lines (cell viability analysis), A549” value [2] was 37 and the “The results of antibiotic drug inhibiting cancer cell lines (cell viability analysis), AGS” value [3] was 49.66. The “The results of antibiotic drug inhibiting cancer cell lines (cell viability analysis), MKN-45” value [4] was 62.38, the “The results of antibiotic drug inhibiting cancer cell lines (cell viability analysis), HepG2” value [5] was 68.31 and the “The results of antibiotic drug inhibiting cancer cell lines (cell viability analysis), Hep3B” value [6] was 78.35. For the same compound, the “The results of antibiotic drug inhibiting cancer cell lines (cell viability analysis), LoVo” value [7] was 45.66, the “The results of antibiotic drug inhibiting cancer cell lines (cell viability analysis), A375” value [8] was 37.32 and the “The results of antibiotic drug inhibiting cancer cell lines (cell viability analysis), BCC” value [9] was 46.3. For the same compound, the “The results of antibiotic drug inhibiting cancer cell lines (cell viability analysis), HeLa” value [10] was 47.73, the “The results of antibiotic drug inhibiting cancer cell lines (cell viability analysis), C-33A” value [11] was 63.88 and the “The results of antibiotic drug inhibiting cancer cell lines (cell viability analysis), PC-3” value [12] was 53.42. For the same compound, the “The results of antibiotic drug inhibiting cancer cell lines (cell viability analysis), TSGH-8301” value [13] was 56.13, the “The results of antibiotic drug inhibiting cancer cell lines (cell viability analysis), T24” value (T24) was 56.73 and the “The results of antibiotic drug inhibiting cancer cell lines (cell viability analysis), MCF-7” value [14] was 56.33. The “The results of antibiotic drug inhibiting cancer cell lines (cell viability analysis), MDA-MB231” value [15] was 95.38, the “The results of antibiotic drug inhibiting cancer cell lines (cell viability analysis), BxPC-3” value (BxPC-3) was 41.88 and the “The results of antibiotic drug inhibiting cancer cell lines (cell viability analysis), AsPC-1” value (AsPC-1) was 41.11. For the same compound, the “The results of antibiotic drug inhibiting cancer cell lines (cell viability analysis), NIH-OVCAR-3” value (NIH: OVCAR-3) was 64.29, the “The results of antibiotic drug inhibiting cancer cell lines (cell viability analysis), TOV-21G” value (TOV-21G) was 28.26 and the “The results of antibiotic drug inhibiting cancer cell lines (cell viability analysis), SAS” value [16] was 34.01. For the same compound, the “The results of antibiotic drug inhibiting cancer cell lines (cell viability analysis), U2OS” value (U-2OS) was 36.38, the “The results of antibiotic drug inhibiting cancer cell lines (cell viability analysis), 786-O” value [17] was 59.38 and the viability [18] was 54.1%.

`Cl.c1ccc([C@H]2CN3CCSC3=N2)cc1` [Levamisole Hydrochloride (Ergamisol)] was tested, and the “The results of antibiotic drug inhibiting cancer cell lines (cell viability analysis), H1650” value [1] was 78.34, the “The results of antibiotic drug inhibiting cancer cell lines (cell viability analysis), A549” value [2] was 104.9 and the “The results of antibiotic drug inhibiting cancer cell lines (cell viability analysis), AGS” value [3] was 120.5. The “The results of antibiotic drug inhibiting cancer cell lines (cell viability analysis), MKN-45” value [4] was 112.3, the “The results of antibiotic drug inhibiting cancer cell lines (cell viability analysis), HepG2” value [5] was 127.7 and the “The results of antibiotic drug inhibiting cancer cell lines (cell viability analysis), Hep3B” value [6] was 121.1. The “The results of antibiotic drug inhibiting cancer cell lines (cell viability analysis), LoVo” value [7] was 100.7, the “The results of antibiotic drug inhibiting cancer cell lines (cell viability analysis), A375” value [8] was 113.9 and the “The results of antibiotic drug inhibiting cancer cell lines (cell viability analysis), BCC” value [9] was 114.1. For the same compound, the “The results of antibiotic drug inhibiting cancer cell lines (cell viability analysis), HeLa” value [10] was 137, the “The results of antibiotic drug inhibiting cancer cell lines (cell viability analysis), C-33A” value [11] was 96.19 and the “The results of antibiotic drug inhibiting cancer cell lines (cell viability analysis), PC-3” value [12] was 125.7. The “The results of antibiotic drug inhibiting cancer cell lines (cell viability analysis), TSGH-8301” value [13] was 106.8, the “The results of antibiotic drug inhibiting cancer cell lines (cell viability analysis), T24” value (T24) was 92.87 and the “The results of antibiotic drug inhibiting cancer cell lines (cell viability analysis), MCF-7” value [14] was 102.4. For the same compound, the “The results of antibiotic drug inhibiting cancer cell lines (cell viability analysis), MDA-MB231” value [15] was 102.7, the “The results of antibiotic drug inhibiting cancer cell lines (cell viability analysis), BxPC-3” value (BxPC-3) was 68.02 and the “The results of antibiotic drug inhibiting cancer cell lines (cell viability analysis), AsPC-1” value (AsPC-1) was 85.72. For the same compound, the “The results of antibiotic drug inhibiting cancer cell lines (cell viability analysis), NIH-OVCAR-3” value (NIH: OVCAR-3) was 105.6, the “The results of antibiotic drug inhibiting cancer cell lines (cell viability analysis), TOV-21G” value (TOV-21G) was 83.45 and the “The results of antibiotic drug inhibiting cancer cell lines (cell viability analysis), SAS” value [16] was 89.56. The “The results of antibiotic drug inhibiting cancer cell lines (cell viability analysis), U2OS” value (U-2OS) was 79.87, the “The results of antibiotic drug inhibiting cancer cell lines (cell viability analysis), 786-O” value [17] was 93.24 and the viability [18] was 116%.
